Reference: PMC10600239, “Selective MCL-1 inhibitor ABBV-467 is efficacious in tumor models but is associated with cardiac troponin increases in patients” (Communications Medicine, 2023)

Tested on: AMO-1 xenografts
Test: AMO-1 xenograft efficacy (tumor volume, body weight)
Assay type: in vivo, mouse
Details: SCID-beige mice bearing AMO-1 (DSMZ) flank xenografts; IV, Q7Dx2, 6.25-25 mg/kg; 5% DMSO, 10% cremophor EL, 85% D5W
Method: All animal studies were conducted in accordance with the guidelines approved by the Institutional Animal Care and Use Committees of AbbVie. The research protocol was approved by In Vivo Pharmacology at AbbVie prior to study initiation but was not publicly registered or disclosed. Female C.B-17 SCID-beige mice (AMO-1, OPM-2, NCI-H929, and OCI-AML2 xenografts) and female NSG mice (MV4-11-Red.Fluc systemic) were purchased from Charles River Laboratories (Wilmington, MA). Animals were housed in a light cycle-controlled room with HEPA filtration at 22 °C. Animals had nesting and climbing cage topper as the primary environmental enrichment. Animals were inoculated subcutaneously in the right flank with 5 × 10^6 (AMO-1, OPM-2, NCI-H929, and OCI-AML2) or intravenous (IV) with 5 × 10^6 (MV4-11-Red.Fluc). The inoculation volume (0.2 mL) comprised a 50:50 mixture of cells in growth media and Matrigel (BD Biosciences) for subcutaneous injections and 100% phosphate-buffered saline for IV administration. All cell lines used in this publication were authenticated using IDEXX for STR profiling as well as their IMPACT and human IMPACT panels for pathogen screening. Electronic calipers were used to measure the length and width of each tumor 2 to 3 times per week. Tumor volume was estimated by applying the following equation: volume = length × width^2/2. All groups remained blinded during measurements and dosing; only veterinary staff were aware of group identity. When tumors reached approximately 200 mm^3, mice were randomized by match and distributed into treatment and control groups. All xenograft trials were conducted using 5 to 10 mice per group, and all mice were ear tagged and monitored individually throughout the studies. […] Tumor burden in the systemic MV4-11-Red.Fluc experiment was measured using an IVIS® spectrum from PerkinElmer by taking the total photon flux of the entire dorsal side of an individual mouse. […] A background control mouse that was tumor naive but received D-Luciferin was placed in the upper left corner of each image. The total flux from this animal was subtracted from the total flux of each animal present in the image.
For in vivo studies, maximal tumor growth inhibition (TGI) was calculated as the greatest treatment response using the following equation: Maximal TGI = (1 − mean tumor volume of the treated group/mean tumor volume of the vehicle control group) × 100. The tumor growth delay (TGD) percentage was determined as the percentage increase of the median time period for the treatment group to reach an arbitrary tumor volume of 1000 mm^3 relative to the vehicle control group. […] A power analysis was conducted using historical data to determine the number of animals required to yield significance of 0.05 at a 30% difference. […] Data from experiments in vivo were analyzed using the student’s t-test for TGI values and the Mann–Whitney U test for TGD using Excel and GraphPad Prism. Fisher’s exact test was used to probe significance of differences in response frequency.

SMILES: Cc1c(Cl)c2c(Cl)c(C)c1-c1c(-c3ccc(F)cc3)sc3ncnc(c13)O[C@@H](C(=O)O)Cc1cc(ccc1OCc1ccnc(-c3ccc(OC[C@H]4COCCO4)cc3)n1)OC[C@@H](CN1CCN(C)CC1)O2 [Compound A-1747745]
- Results: toxicity following iv injection: A-1747745 and A-1746463 showed lethal toxicity due to drug precipitate folowing iv injection.
